The target of one data set is human sEH (Homo sapiens (Human), UniProt P34913). The data set is described as follows: In vitro determination of sEH inhibition activity (fluorescent assay, CMNPC substrate). In kind it is biochemical. Conditions: purified recombinant human sEH, CMNPC 5 μM, 30° C., mean of triplicate. As for the experimental part: Cyano(6-methoxynaphthalen-2-yl)methyl 2-(3-phenyloxiran-2-yl)methylcarbonate (CMNPC); cf. Morisseau, C.; Hammock, B. D. Measurement of soluble epoxide hydrolase (sEH) activity. Curr. Protoc. Toxicol.
human sEH, sequence (P34913 whole entry): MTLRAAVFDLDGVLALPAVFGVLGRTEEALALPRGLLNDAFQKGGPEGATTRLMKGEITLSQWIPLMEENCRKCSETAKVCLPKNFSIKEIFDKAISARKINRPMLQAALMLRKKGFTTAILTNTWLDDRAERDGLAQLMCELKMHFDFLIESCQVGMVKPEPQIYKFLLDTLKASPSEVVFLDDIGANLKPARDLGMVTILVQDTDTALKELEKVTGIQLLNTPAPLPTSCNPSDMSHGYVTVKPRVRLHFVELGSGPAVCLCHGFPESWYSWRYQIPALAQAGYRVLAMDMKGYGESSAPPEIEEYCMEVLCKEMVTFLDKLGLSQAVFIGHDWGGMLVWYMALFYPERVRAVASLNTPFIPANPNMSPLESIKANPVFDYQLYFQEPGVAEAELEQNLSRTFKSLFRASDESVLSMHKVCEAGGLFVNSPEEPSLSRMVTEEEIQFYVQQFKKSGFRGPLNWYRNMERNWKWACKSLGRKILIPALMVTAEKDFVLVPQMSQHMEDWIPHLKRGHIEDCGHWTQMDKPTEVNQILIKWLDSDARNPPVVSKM
The fluorescent assay was used with purified recombinant human or mouse sEH proteins. The enzymes were incubated at 30° C. with the inhibitors ([I]final=0.4-100,000 nM) for 5 min in 100 mM sodium phosphate buffer (200 μL, pH 7.4) containing 0.1 mg/mL of BSA and 1% of DMSO. The substrate (CMNPC) was then added ([S]final=5 μM). […] Results were obtained by regression analysis from a linear region of the curve.

Data set [1] in a line: In vitro determination of microsomal stability. In kind it is in vitro ADME. Conditions: human microsomes, 37° C., samples at 0-60 min. As for the experimental part:
The human recombinant microsomes employed were purchased from Tebu-Xenotech. […] Samples (75 μL) were taken from each well at 0, 10, 20, 40 and 60 min and transferred to a plate containing 4° C. 75 μL acetonitrile and 30 μL of 0.5% formic acid in water were added for improving the chromatographic conditions. The plate was centrifuged (46000 g, 30 min) and supernatants were taken and analyzed in a UPLC-MS/MS (Xevo-TQD, Waters) by employing a BEH C18 column and an isocratic gradient of 0.1% formic acid in water:0.1% formic acid acetonitrile (60:40). The metabolic stability of the compounds was calculated from the logarithm of the remaining compounds at each of the time points studied.

Another data set has as its system CD1 mice. The data set is described as follows: Seizure assay (pentylenetetrazole, PTZ test). Format: in vivo, mouse. Conditions: 5 mg/kg by gavage 1 h prior to PTZ 85 mg/Kg s.c., monitored 30 min. How it is done:
Test compounds were dissolved in 20% hydroxypropyl-beta-cyclodextrin and concentration was calculated according to the animal weigh to reach the precise dose. Animals were housed in standard care facilities with a 12 hours light-dark cycle with free access to water and food.
To investigate the ability of compounds to cross the blood-brain barrier (BBB), a standard acute test involving the administration of pro-convulsant pentylenetetrazole (PTZ) was employed [Inceoglu et al, PLoS ONE, 2013, 8(12), e80922; WO 2015/148954 A1]. In the test, PTZ was administered at 85 mg/Kg by subcutaneous route, time to onset of first clonic seizure, average of clonic seizures, tonic seizure latency and lethality were monitored for 30 min. Vehicles or compounds were administered by gavage at 5 mg/kg 1 h prior to pro-convulsant.

Structures are written as SMILES. Marks after values point to notes of the source that are not given here.

Take `CC(=O)c1ccc(N2CCC(NC(=O)NC34CC5CC(C)(CC(C3)c3ccccc35)C4)CC2)cc1` [Example C12, 1-(1-(4-acetylphenyl)piperidin-4-yl)-3-(9-methyl-5,6,8,9,10,11-hexahydro-7H-5,9:7,11-dimethanobenzo[9]annulen-7-yl)urea]: on human sEH, the half-inhibitory concentration (IC50) stood at 2.9 nM. In addition, in data set [1], the “Microsomal stability (% remanent)” value stood at 0.7%.

`COC(=O)c1ccc(C(=O)N2CCC(NC(=O)NC34CC5CC(Cl)(CC(C3)c3ccccc35)C4)CC2)cc1` [Example 15, methyl 4-(4-(3-(9-chloro-5,6,8,9,10,11-hexahydro-7H-5,9:7,11-dimethanobenzo[9]annulen-7-yl)ureido)piperidine-1-carbonyl)benzoate] came in with a melting point of 128 to 129 °C.

As for `O=C(NC12CC3CC(F)(CC(C1)c1ccccc13)C2)N[C@H]1CC[C@H](Oc2ccc(C(=O)O)cc2)CC1` [Example 1, 4-[((1r,4r)-4-(3-(9-fluoro-5,6,8,9,10,11-hexahydro-7H-5,9:7,11-dimethanobenzo[9]annulen-7-yl)ureido)cyclohexyl)oxy]benzoic acid], the IC50 at human sEH worked out at 0.5 nM. Moreover, the “Microsomal stability (% remanent)” value in data set [1] turned out to be 77%.

On to `CC12CC3CC(NC(=O)NC4C[C@H]5CC[C@@H](C4)N5Cc4ccccc4)(CC(C1)c1ccccc13)C2` (stereo partly drawn) [Example C2, 1-((1R,3s,5S)-8-benzyl-8-azabicyclo[3.2.1]octan-3-yl)-3-(9-methyl-5,6,8,9,10,11-hexahydro-7H-5,9:7,11-dimethanobenzo[9]annulen-7-yl)urea], for which, at human sEH, the IC50 is 4.7 nM. Besides, in data set [1], the “Microsomal stability (% remanent)” value is listed as 0.1%.

In the case of `COc1cc2c(cc1OC)C1CC3(F)CC2CC(NC(=O)NC2CCN(C(=O)C4CCOCC4)CC2)(C1)C3` [Example 5, 1-(9-fluoro-2,3-dimethoxy-5,6,8,9,10,11-hexahydro-7H-5,9:7,11-dimethanobenzo[9]annulen-7-yl)-3-(1-(tetrahydro-2H-pyran-4-carbonyl)piperidin-4-yl)urea], on human sEH, the half-maximal inhibitory concentration (IC50) is 0.6 nM. Besides, in data set [1], the “Microsomal stability (% remanent)” value was determined as 100%.

Regarding `COc1ccc2c(c1)C1CC3(C)CC2CC(NC(=O)NC2CCN(C(C)=O)CC2)(C1)C3` (centres unmarked) [Example C10, 1-(1-acetylpiperidin-4-yl)-3-(2-methoxy-9-methyl-5,6,8,9,10,11-hexahydro-7H-5,9:7,11-dimethanobenzo[9]annulen-7-yl)urea], at human sEH, the IC50 was determined as 1.2 nM. The “Microsomal stability (% remanent)” value in data set [1] is 33%.

In the case of `CC(=O)N1CCC(NC(=O)NC23CC4CC(C)(CC(C2)c2cc(F)ccc24)C3)CC1` (centres unmarked) [Example C8, 1-(1-acetylpiperidin-4-yl)-3-(2-fluoro-9-methyl-5,6,8,9,10,11-hexahydro-7H-5,9:7,11-dimethanobenzo[9]annulen-7-yl)urea], at human sEH, the IC50 is 0.9 nM. Also, the “Microsomal stability (% remanent)” value in data set [1] was found to be 22%.

For the compound `CC12CC3CC(NC(=O)NC4CCN(Cc5ccccc5)CC4)(CC(C1)c1ccccc13)C2` [Example C5, 1-(1-benzylpiperidin-4-yl)-3-(9-methyl-5,6,8,9,10,11-hexahydro-7H-5,9:7,11-dimethanobenzo[9]annulen-7-yl)urea], at human sEH, the IC50 is 1.5 nM. Besides, the “Microsomal stability (% remanent)” value in data set [1] was 0.1%.

Regarding `CC12CC3CC(NC(=O)Nc4ccc(F)c(F)c4F)(CC(C1)c1ccccc13)C2` [Example C4, 1-(9-methyl-6,7,8,9,10,11-hexahydro-5H-5,9:7,11-dimethanobenzo[9]annulen-7-yl)-3-(2,3,4-trifluorophenyl)urea], the half-maximal inhibitory concentration (IC50) at human sEH turned out to be 1.1 nM. Besides, in data set [1], the “Microsomal stability (% remanent)” value was 7%.

Take `O=C(NC1CCN(c2ccc(C(=O)O)cc2)CC1)NC12CC3CC(Cl)(CC(C1)c1ccccc13)C2` [Example 14, 4-(4-(3-(9-chloro-5,6,8,9,10,11-hexahydro-7H-5,9:7,11-dimethanobenzo[9]annulen-7-yl)ureido)piperidin-1-yl)benzoic acid]: the melting point is 226 to 227 °C. Besides, the IC50 at human sEH was determined as 0.4 nM. In addition, the “Microsomal stability (% remanent)” value in data set [1] is 99%.

As for `CCC(=O)N1CCC(NC(=O)Nc2ccc(OC(F)(F)F)cc2)CC1` [TPPU, N-[1-(1-Oxopropyl)-4-piperidinyl]-N′-[4-(trifluoromethoxy)phenyl]urea, reference compound], in the data set with CD1 mice, the Average clonic seizure worked out at 3.67, the “Mean time to clonic seizure latency” value was determined as 605.33 s and the “Protected from tonic/total (Mortality)” value is on record as 5/6****.

As for `CC(=O)N1CCC(NC(=O)NC23CC4CC(C)(CC(C2)c2c(F)cccc24)C3)CC1` (centres unmarked) [Example C9, 1-(1-acetylpiperidin-4-yl)-3-(1-fluoro-9-methyl-5,6,8,9,10,11-hexahydro-7H-5,9:7,11-dimethanobenzo[9]annulen-7-yl)urea], the 50% inhibitory concentration (IC50) on human sEH was 0.9 nM. The “Microsomal stability (% remanent)” value in data set [1] came to 16%.

Regarding `O=C(NC1CCN(C(=O)c2ccc(C(=O)O)cc2)CC1)NC12CC3CC(Cl)(CC(C1)c1ccccc13)C2` [Example 16, 4-(4-(3-(9-chloro-5,6,8,9,10,11-hexahydro-7H-5,9:7,11-dimethanobenzo[9]annulen-7-yl)ureido)piperidine-1-carbonyl)benzoic acid], the melting point is 200 °C (dec.). Also, the concentration for half-maximal inhibition (IC50) at human sEH stood at 0.4 nM. Further, the “Microsomal stability (% remanent)” value in data set [1] was found to be 88%.

As to `O=C(NC1CCN(c2ccc(C(=O)O)cc2)CC1)NC12CC3CC(F)(CC(C1)c1ccccc13)C2` [Example 13, 4-(4-(3-(9-fluoro-5,6,8,9,10,11-hexahydro-7H-5,9:7,11-dimethanobenzo[9]annulen-7-yl)ureido)piperidin-1-yl)benzoic acid], the melting point fell in the range of 267 to 268 °C. Besides, the IC50 on human sEH is 0.5 nM. Moreover, the “Microsomal stability (% remanent)” value in data set [1] is 100%.

With `COc1cc2c(cc1OC)C1CC3(Cl)CC2CC(NC(=O)NC2CCN(C(=O)C4CCOCC4)CC2)(C1)C3` [Example 6, 1-(9-chloro-2,3-dimethoxy-5,6,8,9,10,11-hexahydro-7H-5,9:7,11-dimethanobenzo[9]annulen-7-yl)-3-(1-(tetrahydro-2H-pyran-4-carbonyl)piperidin-4-yl)urea], the melting point was 147 to 150 °C. Further, the IC50 on human sEH turned out to be 0.4 nM. For the same compound, the “Microsomal stability (% remanent)” value in data set [1] was 42%.

In the case of `CC(=O)N1CCC(NC(=O)NC23CC4CC(C)(CC(C2)c2ccccc24)C3)CC1` [Example C1, 1-(1-acetylpiperidin-4-yl)-3-(9-methyl-5,6,8,9,10,11-hexahydro-7H-5,9:7,11-dimethanobenzo[9]annulen-7-yl)urea], the “Microsomal stability (% remanent)” value in data set [1] was determined as 1%.

The values are drawn from patent publication US20240182406A1, “COMPOUNDS AS SOLUBLE EPOXIDE HYDROLASE INHIBITORS” (UNIVERSITAT DE BARCELONA, priority 2021, published 2024).
